Conditions: not given

Compound	melting point [°C]	ready biodegradability	boiling point [°C]	log10 Henry constant (atm·m³/mol)	log10 vapour pressure (mmHg)	log10 Koc (L/kg)	log10 biodegradation half-life (days)	log10 Koa
CCCCCCCCCCCCCCCCCC(CC)c1ccccc1 (configuration not stated)	29.3	–	–	–	–	–	–	–
N#Cc1cc(I)c(O)c([N+](=O)[O-])c1	138	–	–	–	–	–	–	–
Cc1ccccc1N(CC1CO1)CC1CO1 (configuration not stated)	–	not readily biodegradable	–	–	–	–	–	–
CCCCNCCCC	-62	readily biodegradable	160	-4.05	0.413	–	–	–
CCOC(=O)CNc1nc(Cl)nc(NC(C)C)n1	110	–	–	–	–	–	–	–
O=C(O)c1ccc2c(c1)OCO2	229	–	–	–	–	–	–	–
C=CC(C)C(C)C (configuration not stated)	–	–	80.8	–	–	–	–	–
CCC(C)CC(C)(C)CC (configuration not stated)	–	–	156	–	–	–	–	–
CCCCCCCCCCC(C)O (configuration not stated)	19	–	252	–	–	–	–	–
O=S(=O)(c1ccc(Cl)cc1)c1cc(Cl)c(Cl)cc1Cl	147	not readily biodegradable	–	–	-9.62	–	–	–
CCCc1cccc2ccccc12	-8.6	–	274	–	–	–	–	–
C/C=C/C=C/C(=O)OC	15	–	180	–	–	–	–	–
CC(=O)Nc1cccc(F)c1	83	–	–	–	–	1.57	–	–
CCCCCCCOC(=O)CCCCCCC	-10.6	–	290	–	–	–	–	–
CCCCCc1cc(O)c2c(c1)OC(C)(C)c1ccc(C)cc1-2	77	readily biodegradable	–	–	–	–	–	–
CCCNc1ccccc1	–	–	222	–	–	–	–	–
Cc1ccc(Sc2ccc(C)cc2)cc1	57.3	–	–	–	–	–	–	–
CCCCCCCCCl	-57.8	readily biodegradable	182	–	-0.0223	–	–	–
CCOC(=O)C(Cl)C(=O)OCC	–	–	222	–	–	–	–	–
CCCCNC(C)=O	–	–	229	–	–	–	–	–
CCCCCCCCCCCC(=O)OC(C)C	–	–	–	–	-2.57	–	–	–

Compound	melting point [°C]	ready biodegradability	boiling point [°C]	log10 Henry constant (atm·m³/mol)	log10 vapour pressure (mmHg)	log10 Koc (L/kg)	log10 biodegradation half-life (days)	log10 Koa
COc1ccc(N)cc1N	67.5	–	221	–	–	–	–	–
COc1c(Cl)cc(Cl)cc1Cl	61.5	–	241	–	–	–	–	–
CCOC(=O)C#CC(=O)OCC	1.5	–	–	–	–	–	–	–
O=[N+]([O-])c1ccccc1	5.7	not readily biodegradable	211	-4.62	-0.611	1.94	–	–
CCN(CC)CCCN(c1ccccc1)C1Cc2ccccc2C1	120	–	–	–	–	–	–	–
CC[N+](CC)(CC(=O)Nc1c(C)cccc1C)Cc1ccccc1.O=C([O-])c1ccccc1	168	–	–	–	–	–	–	–
C#COCC	–	–	50	–	–	–	–	–
Cc1ccc([C@H](C)O)cc1	–	–	219	–	–	–	–	–
CC(C)Nc1nc(Cl)nc(NC(C)C)n1	213	not readily biodegradable	–	–	-6.88	2.4	–	–
O=C(O)c1cc(I)c(O)c(I)c1	237	–	–	–	–	–	–	–
CC1=CCc2ccccc21	–	–	198	–	–	–	0.477	–
CC(C)(C)c1ccc(CSc2cnn(C(C)(C)C)c(=O)c2Cl)cc1	112	–	–	–	-5.93	–	–	–
Cc1ccc(N)cc1Br	26	–	256	–	–	–	–	–
O=C1C[C@H]2CCCC[C@H]2C1	-1	–	222	–	–	–	–	–
CCCCCCCCCCCC(=O)OCCOCCO	17.5	–	–	–	–	–	–	–
CC1=C(C(=O)O)N2C(=O)[C@@H](NC(=O)[C@H](N)C3=CCC=CC3)[C@H]2SC1	140	–	–	–	–	–	–	–
CC1=C[C@H]2O[C@@H]3[C@H](O)C[C@](C)([C@@]2(CO)[C@H](O)C1=O)[C@]31CO1	152	–	–	–	–	–	–	–
CP(=O)(c1ccccc1)c1ccccc1	113	–	–	–	–	–	–	–
CCCCCCCCCCCCCCCCCCC#N	–	readily biodegradable	–	–	–	–	–	–
O=c1ccn([C@@H]2C[C@H](F)[C@@H](CO)O2)c(=O)[nH]1	186	–	–	–	–	–	–	–
O=C(O)C=Cc1ccccc1F	179	–	–	–	–	–	–	–

Compound	melting point [°C]	ready biodegradability	boiling point [°C]	log10 Henry constant (atm·m³/mol)	log10 vapour pressure (mmHg)	log10 Koc (L/kg)	log10 biodegradation half-life (days)	log10 Koa
C=CCc1ccc(OC(C)=O)c(OC)c1	30.5	–	281	–	-2.5	–	–	–
NC1=C(Cl)C(=O)c2ccccc2C1=O	199	–	–	–	-6.35	–	–	–
CC(C)I	-90	–	89.5	–	1.63	–	–	–
ClC1=C(Cl)C2(Cl)C3C(Cl)C=CC3C1(Cl)C2(Cl)Cl (configuration not stated)	95.5	not readily biodegradable	310	-3.53	-3.4	4.38	–	7.64
Cc1cc(Cl)nc(Cl)n1	46.5	–	219	–	–	–	–	–
CC(C)(C)I	-38.2	–	100	–	–	–	–	–
OC1CCC1	–	–	124	–	–	–	–	–
CC(C)F	–	–	-10	–	–	–	–	–
COc1ccc(NC(C)=O)cc1Cl	–	–	–	–	–	1.95	–	–
COC(=O)c1ccc(I)cc1	115	–	–	–	–	–	–	–
C=C(Cl)CSC(=S)N(CC)CC	–	–	–	–	-2.66	–	–	–
CCc1cnccc1C	–	–	198	–	–	–	–	–
COC(=O)CC(C)=O	–	readily biodegradable	172	–	-0.0496	–	–	–
O=[N+]([O-])c1c(F)cc(F)cc1F	3.5	–	184	–	–	–	–	–
CCOc1cccc(C)c1	–	–	192	–	–	–	–	–
CC1(C)C(=O)N(Cl)C(=O)N1Cl	132	–	–	–	–	–	–	–
CCCCCCCCCCCCOS(=O)(=O)[O-].[Na+]	206	–	–	–	–	–	–	–
N=C(N)c1ccc(N)cc1	182	–	–	–	–	–	–	–
CCNCC(O)c1cccc(O)c1 (configuration not stated)	148	–	–	–	–	–	–	–
CC1(C)CC(O)CC(C)(CN)C1 (configuration not stated)	45.5	–	265	–	–	–	–	–
CC(C)OC(=O)c1ccccc1O	–	–	238	–	–	–	–	–

Same assay, conditions: fish

Compound	log10 BCF	log10 biotransformation half-life (days)
C=Cc1ccccc1	1.13	–
COP(=O)(OC)OC	0.15	–
Clc1cc2c(cc1Cl)Oc1ccccc1O2	–	0.33
COc1c(Cl)cc(Cl)cc1Cl	2.86	–
O=[N+]([O-])c1ccccc1	0.67	-0.93
ClC1=C(Cl)C2(Cl)C3C(Cl)C=CC3C1(Cl)C2(Cl)Cl (configuration not stated)	3.94	1.45

Reference: the OPERA property sets (Mansouri et al. 2018)
